Reference: patent US11325913B2, “Compounds and methods for the treatment of malaria” (THE BROAD INSTITUTE, INC., priority 2013, dated 2022)

What follows are compounds tested on P. falciparum Dd2 (assay: Activity against the Dd2 strain of P. falciparum (SYBR Green I, 72 h)). Conditions: P. falciparum Dd2, 72 h incubation.
Format: cell-based
Method in brief: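 Parasites in human RBCs at 1% parasitemia and 1.0% hematocrit, exposed to compounds (0.125% DMSO) for 72 h at 37°C under 93% N2/4% CO2/3% O2. SYBR Green I in saponin/Triton lysis buffer added, 24 h staining, fluorescence read at 485/530 nm. EC50 derived against 20 μM mefloquine background and DMSO baseline.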

Row | EC50 | Structure (SMILES)
1 | 61 nM | O=C(Nc1ccccc1)N1CCCCN2[C@H](CO)[C@H](c3ccc(C#Cc4ccccc4)cc3)[C@@H]2C1 [Compound 78, (8R,9R,10S)-10-(hydroxymethyl)-N-phenyl-9-[4-(2-phenylethynyl)phenyl]-1,6-diazabicyclo[6.2.0] decane-6-carboxamide]

Same assay, conditions: Plasmodium falciparum, DD2, 72 h, P. falciparum Dd2, 72 h incubation

Row | EC50 | Structure (SMILES)
2 | 4 nM | COc1ccc(NC(=O)N2CCCCN3[C@H](CO)[C@H](c4ccc(C#Cc5ccccc5)cc4)[C@@H]3C2)cc1 [Compound 27, (8R,9R,10S)-10-(hydroxymethyl)-N-(4-methoxyphenyl)-9-(4-(phenylethynyl)phenyl)-1,6-diazabicyclo[6.2.0] decane-6-carboxamide]
3 | 4890 nM | COc1ccc(NC(=O)N2CCCCN3[C@H](CO)[C@H](c4ccc(-c5ccn(-c6ccccc6)n5)cc4)[C@@H]3C2)cc1 [Compound 77, (8R,9R,10S)-10-(hydroxymethyl)-N-(4-methoxyphenyl)-9-[4-(1-phenyl-1H-pyrazol-3-yl)phenyl]-1,6-diazabicyclo[6.2.0] decane-6-carboxamide]
4 | 850 nM | COc1ccc(NC(=O)N2CCCN3[C@H](CO)[C@H](c4ccc(C#Cc5ccccc5)cc4)[C@@H]3C2)cc1 [Compound 79, (7R,8R,9S)-9-(hydroxymethyl)-N-(4-methoxyphenyl)-8-[4-(2-phenylethynyl)phenyl]-1,5-diazabicyclo[5.2.0] nonane-5-carboxamide]
5 | 23 nM | COc1ccc(NC(=O)N2CCCCN3[C@H](COCCC(=O)O)[C@H](c4ccc(C#Cc5ccccc5)cc4)[C@@H]3C2)cc1 [Compound 80, 3-(((8R,9R,10S)-6-((4-methoxyphenyl)carbamoyl)-9-(4-(phenylethynyl)phenyl)-1,6-diazabicyclo[6.2.0]decan-10-yl)methoxy)propanoic acid]
6 | 34 nM | COc1ccc(NC(=O)N2CCCCN3[C@H](CO)[C@H](c4ccc(C#Cc5ccccc5)cn4)[C@@H]3C2)cc1 [Compound 81, (8R,9R,10S)-10-(hydroxymethyl)-N-(4-methoxyphenyl)-9-(5-(phenylethynyl)pyridin-2-yl)-1,6-diazabicyclo[6.2.0] decane-6-carboxamide]
7 | 3 nM | COc1ccc(NC(=O)N2CCCCN3[C@@H](CNC(C)=O)[C@H](c4ccc(C#Cc5ccccc5)cc4)[C@@H]3C2)cc1 [Compound 82, (8R,9S,10R)-10-(acetamidomethyl)-N-(4-methoxyphenyl)-9-(4-(phenylethynyl)phenyl)-1,6-diazabicyclo[6.2.0] decane-6-carboxamide]
8 | 24 nM | O=C(Nc1ccc(OCCN2CCOCC2)cc1)N1CCCCN2[C@H](CO)[C@H](c3ccc(C#Cc4ccccc4)cc3)[C@@H]2C1 [Compound 83, (8R,9R,10S)-10-(hydroxymethyl)-N-(4-(2-morpholinoethoxy)phenyl)-9-(4-(phenylethynyl)phenyl)-1,6-diazabicyclo[6.2.0] decane-6-carboxamide]
9 | 52 nM | COc1ccc(NC(=O)N2CCCCN3[C@@H](CN4CCOCC4)[C@H](c4ccc(C#Cc5ccccc5)cc4)[C@@H]3C2)cc1 [Compound 84, (8R,9S,10R)-N-(4-methoxyphenyl)-10-(morpholinomethyl)-9-(4-(phenylethynyl)phenyl)-1,6-diazabicyclo[6.2.0] decane-6-carboxamide]
10 | 0.4 nM | COc1ccc(NC(=O)N2CCCCN3[C@@H](COCC(=O)O)[C@H](c4ccc(C#Cc5ccccc5)cc4)[C@@H]3C2)cc1 [Compound 85, 2-(((8R,9R,10R)-6-((4-methoxyphenyl)carbamoyl)-9-(4-(phenylethynyl)phenyl)-1,6-diazabicyclo[6.2.0]decan-10-yl)methoxy)acetic acid]
11 | 2 nM | COc1ccc(NC(=O)N2CCCCN3[C@@H](COCCC(=O)O)[C@H](c4ccc(C#Cc5ccccc5)cc4)[C@@H]3C2)cc1 [Compound 86, 3-(((8R,9R,10R)-6-((4-methoxyphenyl)carbamoyl)-9-(4-(phenylethynyl)phenyl)-1,6-diazabicyclo[6.2.0]decan-10-yl)methoxy)propanoic acid]
12 | 1 nM | COC(=O)CCOC[C@@H]1[C@H](c2ccc(C#Cc3ccccc3)cc2)[C@@H]2CN(C(=O)Nc3ccc(OC)cc3)CCCCN12 [Compound 87, methyl 3-(((8R,9R,10S)-6-((4-methoxyphenyl)carbamoyl)-9-(4-(phenylethynyl)phenyl)-1,6-diazabicyclo[6.2.0]decan-10-yl)methoxy)propanoate]
13 | 25 nM | CNC[C@H]1[C@H](c2ccc(C#Cc3ccccc3)cc2)[C@@H]2CN(C(=O)Nc3ccc(OC)cc3)CCCCN12 [Compound 88, (8R,9S,10R)-N-(4-methoxyphenyl)-10-((methylamino)methyl)-9-(4-(phenylethynyl)phenyl)-1,6-diazabicyclo[6.2.0] decane-6-carboxamide]
14 | 8 nM | COc1ccc(NC(=O)N2CCCCN3[C@H](COCCC(=O)N4CCOCC4)[C@H](c4ccc(C#Cc5ccccc5)cc4)[C@@H]3C2)cc1 [Compound 89, (8R,9R,10S)-N-(4-methoxyphenyl)-10-((3-morpholino-3-oxopropoxy)methyl)-9-(4-(phenylethynyl)phenyl)-1,6-diazabicyclo[6.2.0] decane-6-carboxamide]
15 | 228 nM | COc1ccc(NC(=O)N2CCCCN3[C@H](CNCC(F)(F)F)[C@H](c4ccc(C#Cc5ccccc5)cc4)[C@@H]3C2)cc1 [Compound 90, (8R,9S,10S)-N-(4-methoxyphenyl)-9-(4-(phenylethynyl)phenyl)-10-(((2,2,2-trifluoroethyl)amino)methyl)-1,6-diazabicyclo[6.2.0] decane-6-carboxamide]
16 | 14 nM | COc1ccc(NC(=O)N2CCCCN3[C@@H](COCCC(=O)N4CCOCC4)[C@H](c4ccc(C#Cc5ccccc5)cc4)[C@@H]3C2)cc1 [Compound 91, (8R,9R,10R)-N-(4-methoxyphenyl)-10-((3-morpholino-3-oxopropoxy)methyl)-9-(4-(phenylethynyl)phenyl)-1,6-diazabicyclo[6.2.0] decane-6-carboxamide]
17 | 108 nM | COc1ccc(NC(=O)N2CCCCN3[C@@H](CN(C)C)[C@H](c4ccc(C#Cc5ccccc5)cc4)[C@@H]3C2)cc1 [Compound 92, (8R,95S,10R)-10-((dimethylamino)methyl)-N-(4-methoxyphenyl)-9-(4-(phenylethynyl)phenyl)-1,6-diazabicyclo[6.2.0] decane-6-carboxamide]
18 | 138 nM | N#Cc1ccc(NC(=O)N2CCCCN3[C@H](CO)[C@H](c4ccc(C#Cc5ccccc5)cc4)[C@@H]3C2)cc1 [Compound 93, (8R,9R,10S)-N-(4-cyanophenyl)-10-(hydroxymethyl)-9-(4-(phenylethynyl)phenyl)-1,6-diazabicyclo[6.2.0] decane-6-carboxamide]
19 | 14 nM | CCN(CC)C[C@@H]1[C@H](c2ccc(C#Cc3ccccc3)cc2)[C@@H]2CN(C(=O)Nc3ccc(OC)cc3)CCCCN12 [Compound 94, (8R,9S,10S)-10-((diethylamino)methyl)-N-(4-methoxyphenyl)-9-(4-(phenylethynyl)phenyl)-1,6-diazabicyclo[6.2.0] decane-6-carboxamide]
20 | 5000 nM | COc1ccc(NC(=O)N(C)C[C@H]2[C@@H](c3ccc(C#Cc4ccccc4)cc3)[C@@H](CO)N2C)cc1 [Compound 95, 1-(((2R,3R,4S)-4-(hydroxymethyl)-1-methyl-3-(4-(phenylethynyl)phenyl)azetidin-2-yl)methyl)-3-(4-methoxyphenyl)-1-methylurea]

Row | Structure (SMILES) | EC50
21 | COc1ccc(NC(=O)N2CCCCN3[C@H](CN(C)C)[C@H](c4ccc(C#Cc5ccccc5)cc4)[C@@H]3C2)cc1 [Compound 68, (8R,9S,10S)-10-[(dimethylamino)methyl]-N-(4-methoxyphenyl)-9-[4-(2-phenylethynyl)phenyl]-1,6-diazabicyclo[6.2.0] decane-6-carboxamide] | 3 nM

The compounds below were run on P. berghei strain ANKA (assay: In vivo antimalarial activity, mice infected with P. berghei strain ANKA, three daily oral doses). Conditions: 50 mg/kg orally, three consecutive daily doses (24, 48, 72 h after infection), day 4, relative to control group.
Parameters: species or system NMVRI mice
Method: In vivo antimalarial activity for certain compounds of the invention was assessed for groups of three-five female NMVRI mice ([…]) intravenously infected on day 0 with P. berghei strain ANKA (2×10^7 parasitized erythrocytes per ml). In control mice, parasitemia typically rose to ˜40% by day 3 after infection, and control mice died between day 5 and day 7 after infection. Compounds with a dosage of 50 mg/kg were formulated in 7% Tween80/3% ethanol and were administered orally as three consecutive daily doses (24, 48, and 72 h after infection). The blood smears were collected and stained on day 4 after infection. The degree of infection (parasitemia expressed as percent infected erythrocytes) was determined microscopically, with a detection limit of 1 parasite in 10,000 erythrocytes (that is, 0.01%). Activity was calculated as the difference between the mean percent parasitemia for the control and treated groups expressed as a percent relative to the control group. Using this method, a compound of the invention (8R,9R,10S)-10-(hydroxymethyl)-N-(4-methoxyphenyl)-9-(4-(phenylethynyl)phenyl)-1,6-diazabicyclo[6.2.0]decane-6-carboxamide (compound 27) reduced parasitaemia by 57% on day 4. […] Quantification was conducted by comparison to a calibration curve prepared using blank plasma and processed in the same way as the samples.

Row | Structure (SMILES) | reduction of parasitaemia
22 | COc1ccc(NC(=O)N2CCCCN3[C@H](CO)[C@H](c4ccc(C#Cc5ccccc5)cc4)[C@@H]3C2)cc1 [Compound 27, (8R,9R,10S)-10-(hydroxymethyl)-N-(4-methoxyphenyl)-9-(4-(phenylethynyl)phenyl)-1,6-diazabicyclo[6.2.0] decane-6-carboxamide] | 57%

These compounds were tested on P. berghei (ANKA GFP-luc) blood stage parasites (assay: Single dose in vivo efficacy, P. berghei blood stage, bioluminescence imaging). Conditions: single 50 mg/kg oral dose.
Parameters: species or system CD-1 mice
Method: CD-1 mice (female, 6-7-week-old) were inoculated with 1×10^6 P. berghei (ANKA GFP-luc) blood stage parasites intravenously 24 hours before treatment and compounds were administered as a single 100 or 50 mg/kg dose orally at 0 hour. Parasitemia was monitored by the In vivo Imaging System (IVIS 100, Xenogen; Caliper Life Science) to acquire the bioluminescence signal. Animals with parasitemia exceeding 25% were euthanized.
Infection proceeds rapidly in untreated mice (control), which were euthanized around day 6 of the study. Compound 37 and 68 were tested at different times; thus the artesunate control (ART) is shown for each compound. […] All images are normalized to the same color scale.

Row | Structure (SMILES) | cure of the infected animals
23 | COc1ccc(NC(=O)N2CCCCN3[C@H](CN(C)C)[C@H](c4ccc(C#Cc5ccccc5)cc4)[C@@H]3C2)cc1 [Compound 68, (8R,9S,10S)-10-[(dimethylamino)methyl]-N-(4-methoxyphenyl)-9-[4-(2-phenylethynyl)phenyl]-1,6-diazabicyclo[6.2.0] decane-6-carboxamide] | 100%

Same assay, conditions: single 100 mg/kg dose

Row | Structure (SMILES) | effect on parasites
24 | C[C@H]1[C@H](OC(=O)CCC(=O)O)O[C@@H]2O[C@@]3(C)CC[C@H]4[C@H](C)CC[C@@H]1[C@@]24OO3 [ART, artesunate, reference compound] | rapid suppression of parasites, but, due to its short half-life, the parasites re-emerge quickly

Same assay, conditions: single oral dose, P. berghei blood stage

Row | Structure (SMILES) | ED100
25 | COc1ccc(NC(=O)N2CCCCN3[C@H](CN(C)C)[C@H](c4ccc(C#Cc5ccccc5)cc4)[C@@H]3C2)cc1 [Compound 68, (8R,9S,10S)-10-[(dimethylamino)methyl]-N-(4-methoxyphenyl)-9-[4-(2-phenylethynyl)phenyl]-1,6-diazabicyclo[6.2.0] decane-6-carboxamide] | ≤ 50 mg/kg
